Source: patent publication US5274098A, “Amidinophenylalanine derivatives, process for their preparation, their use and compositions containing them” (Behringwerke Aktiengesellschaft, priority 1991, dated 1993)

Assays:
human thrombin [1] = biological target: T1, human thrombin (Homo sapiens, UniProt P00734); experiment: KI value for thrombin (Lineweaver and Burk, Chromozym TH); assay type: biochemical; settings: inhibitor conc. approx. IC50, Chromozym TH 0.7-45×10^-5 mol/l, read-out: Thrombin inhibition KI
T1 construct: human thrombin
Description: Determination of the KI value for thrombin:
The KI values for the compounds investigated were determined using the abovementioned thrombin solution. To do this, thrombin was incubated with a concentration of inhibitor which approximately corresponded to the IC50 value determined in the abovementioned test.

thrombin [2] = settings: cited from earlier work
human thrombin [3] = biological target: T1, human thrombin; experiment: IC50 value of the thrombin inhibition (Chromozym TH, pNA release at 405 nm); assay type: biochemical; settings: 0.1M tris-HCl/0.15 M NaCl pH 8.2, 1 h preincubation, substrate Chromozym TH 5×10^-5 M
Description: Determination of the IC50 value of the thrombin inhibition:
The compounds were incubated with human thrombin in 0.1M tris-HCl buffer/0.15 M NaCl pH 8.2 in increasing concentrations.

thrombin [4] = experiment: Activity with respect to inhibition of thrombin / antithrombotic activity, general statements; assay type: biochemical; settings: relative to the glycine compound
Excerpt: The inhibitors according to the invention are examined according to various criteria to assess their activity, preferably these are the determination of the Ki value, the IC50 value or the partial thromboplastin time (PTT) in vivo and in vitro.

Row | Structure (SMILES) | Ki (human thrombin [1]) [nM] | type of thrombin inhibition (prior art, in words) (thrombin [2]) | IC50 (human thrombin [3]) [nM] | exceeds the activity of the glycine compound by a factor (thrombin [4])
1 | Cc1c(C)c(S(=O)(=O)NNC(=O)N[C@H](Cc2ccc(C(=N)N)cc2)C(=O)N2CCCCC2)c(C)c2c1OC(C)(C)CC2 [Pmc--AGly--Aph--Pip, Pmc-Azaglycyl-D-p-amidinophenylalanylpiperidide] | 0.092 | – | – | –
2 | CC1CNc2c(cccc2S(=O)(=O)N[C@@H](CCCNC(=N)N)C(=O)N2CC[C@@H](C)C[C@@H]2C(=O)O)C1 (stereo partly shown) [MD 805, monohydrate] | – | competitive specific thrombin inhibitor | – | –
3 | N=C(N)c1ccc(C[C@@H](NC(=O)NNS(=O)(=O)c2ccc3ccccc3c2)C(=O)N2CCCCC2)cc1 [Nas--AGly--Aph--Pip, Beta-naphthylsulfonyl-azaglycyl-D-p-amidinophenylalanylpiperidide] | 2.6 | – | 1.3 | 5
4 | Cc1c(C)c(S(=O)(=O)NCC(=O)NC(Cc2ccc(C(=N)N)cc2)C(=O)N2CCCCC2)c(C)c2c1OC(C)(C)CC2 (stereo not shown) [Pmc--Gly--Aph--Pip, reference compound] | 1.3 | – | 1.4 | –
